From patent publication US11384078B2, “5,6-fused-bicyclic compounds and compositions for the treatment of parasitic diseases” (NOVARTIS AG, priority 2017, dated 2022)
Like-named read-outs stand apart in the source and are kept apart here.

Tests used:
Assay type in all cases: cell-based
[1] = tested on: Leishmania donovani axenic amastigote; assay: In vitro assay for growth inhibition of Leishmania donovani axenic amastigote (Cell TiterGlo luminescence); details: Leishmania donovani, L. donovani axenic amastigotes in vitro; read-out: L. donovani amastigotes EC50
Procedure, shortened: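 Compound-treated wells received 9600 axenic amastigotes in RPMI 1640-based medium at pH 5.5 (37 °C, 5% CO2). Growth measured as ATP luminescence (CellTiter-Glo) after 2-day incubation; DMSO and reference compounds served as controls.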

[2] = tested on: L. donovani HU3 strain in mouse peritoneal macrophages; assay: Assay for inhibition of parasitemia of Leishmania donovani in mouse macrophages (SYBR Green nuclei count, high-content imaging); details: Leishmania donovani, Peritoneal macrophage, L. donovani in mouse peritoneal macrophages; read-out: L. donovani in Mouse Macrophages EC50
Procedure, shortened: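 Parasite numbers were counted from SYBR Green-stained nuclei imaged by high-content microscopy after paraformaldehyde fixation and Triton permeabilization. Before this, compound was applied for 5 days at 37° C to BALB/c peritoneal macrophages (2×10^4/well) that had been exposed 24 h to 4×10^5 L. donovani HU3 amastigotes harvested from infected mouse spleens.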

[3] = tested on: Trypanosoma cruzi amastigotes cultured in 3T3 fibroblast cells; assay: Assay for growth inhibition of kinetoplastid parasite Trypanosoma cruzi (beta-galactosidase Tulahuen strain, CPRG readout); details: Trypanosoma cruzi, Fibroblast, T. cruzi amastigotes in 3T3 fibroblast cells; read-out: Buckner infectious T. cruzi EC50
Procedure, shortened: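 3T3 fibroblasts (1,000 cells/well) plated overnight, treated with compound in DMSO, then infected with 10,000 Lac-Z-expressing Tulahuen trypomastigotes. After 6 days, 0.6 mM CPRG with 0.6% NP-40 added for 2 h at room temperature; absorbance gives relative intracellular amastigote numbers. Benznidazole and nifurtimox serve as positive controls.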

[4] = tested on: Trypanosoma brucei brucei (Lister 427) strain; assay: Assay for growth inhibition against Trypanosoma brucei brucei (Cell TiterGlo ATP luminescence); details: T. brucei brucei (Lister 427), read-out: T. Brucei (HAT) EC50
Procedure, shortened: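 Growth read-out is cellular ATP by CellTiter-Glo luminescence, measured 30 min after reagent addition, following 2-day incubation at 37 °C in CO2. Parasites (10,000/mL, HMI-9 plus 10% FBS and 10% serum plus) faced 10 threefold dilutions in duplicate; IC50 taken as 50% growth inhibition versus untreated.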

SMILES | EC50 [1] [nM] | EC50 [2] [nM] | EC50 [3] [nM] | EC50 ([4]; Trypanosoma brucei) [nM] | EC50 [4] [nM]
O=C(Nc1ccc(F)c(-n2cc3cc(N4CC(F)(F)C4)cnc3n2)c1)N1CC(F)C1 [Compound 298, N-{3-[5-(3,3-difluoroazetidin-1-yl)-2H-pyrazolo[3,4-b]pyridin-2-yl]-4-fluorophenyl}-3-fluoroazetidine-1-carboxamide] | 14 | 4 | 4 | 4 | –
O=C(Nc1ccc(F)c(-n2cc3cc(-n4ccnc4)cnc3n2)c1)N1CC(F)C1 [Compound 323, 3-fluoro-N-{4-fluoro-3-[5-(1H-imidazol-1-yl)-2H-pyrazolo[3,4-b]pyridin-2-yl]phenyl}azetidine-1-carboxamide] | 12 | 113 | 62 | 15 | –
O=C(Nc1ccc(F)c(-n2cc3cc(C4CC4)cnc3n2)c1)N1CC[C@@H](F)C1 [Compound 42, (3R)-N-(3-{5-cyclopropyl-2H-pyrazolo[3,4-b]pyridin-2-yl}-4-fluorophenyl)-3-fluoropyrrolidine-1-carboxamide] | 3 | 6 | 1.8 | < 23 | –
O=C(Nc1ccnc(-n2cc3cc(-c4ccccn4)cnc3n2)c1)N1CCC1 [Compound 341, N-{2-[5-(pyridin-2-yl)-2H-pyrazolo[3,4-b]pyridin-2-yl]pyridin-4-yl}azetidine-1-carboxamide] | 6 | 33 | 10 | 9 | –
O=C(Nc1ccc(F)c(-n2cc3cc(C4CCN4)cnc3n2)c1)N1CC(F)C1 (centres unmarked) [Compound 264, N-{3-[5-(azetidin-2-yl)-2H-pyrazolo[3,4-b]pyridin-2-yl]-4-fluorophenyl}-3-fluoroazetidine-1-carboxamide] | 357 | 13700 | 480 | 384 | –
O=C(Nc1ccc(F)c(-n2cc3cc(N4CCC4)cnc3n2)c1)c1ccco1 [Compound 151, N-{3-[5-(azetidin-1-yl)-2H-pyrazolo[3,4-b]pyridin-2-yl]-4-fluorophenyl}furan-2-carboxamide] | 60 | 13 | 12 | < 23 | –
O=C(Nc1ccnc(-n2cc3cc(Br)cnc3n2)c1)N1CC[C@@H](F)C1 [Compound 340, (3R)-N-(2-{5-bromo-2H-pyrazolo[3,4-b]pyridin-2-yl}pyridin-4-yl)-3-fluoropyrrolidine-1-carboxamide] | 225 | 87 | 61 | 35 | –
O=C(Nc1ccc(F)c(-n2cc3cc(-c4ncccc4F)cnc3n2)c1)N1CCC1 [Compound 313, N-{4-fluoro-3-[5-(3-fluoropyridin-2-yl)-2H-pyrazolo[3,4-b]pyridin-2-yl]phenyl}azetidine-1-carboxamide] | 1 | 2 | 1 | 5 | –
O=C(Nc1ccc(F)c(-n2cc3cc(N4CCN(CC(F)(F)F)CC4)cnc3n2)c1)N1CC(F)C1 [Compound 237, 3-fluoro-N-(4-fluoro-3-{5-[4-(2,2,2-trifluoroethyl)piperazin-1-yl]-2H-pyrazolo[3,4-b]pyridin-2-yl}phenyl)azetidine-1-carboxamide] | 16 | 9 | 21 | 5 | –
O=C(Nc1ccc(F)c(-n2cc3cc(N4CC5(CCOCC5)C4)cnc3n2)c1)N1CC(F)C1 [Compound 203, 3-fluoro-N-[4-fluoro-3-(5-{7-oxa-2-azaspiro[3.5]nonan-2-yl}-2H-pyrazolo[3,4-b]pyridin-2-yl)phenyl]azetidine-1-carboxamide] | 490 | 9 | 20 | 5 | –
O=C(Nc1ccc(F)c(-n2cc3cc(N4CC5(CC5)C4)cnc3n2)c1)N1CCC1 [Compound 257, N-(3-(5-(5-azaspiro[2.3]hexan-5-yl)-2H-pyrazolo[3,4-b]pyridin-2-yl)-4-fluorophenyl)azetidine-1-carboxamide] | 14 | 7 | 2 | 4 | –
O=C(Nc1ccc(F)c(-n2cc3cc(CC(F)(F)F)cnc3n2)c1)N1CC(F)C1 [Compound 152, 3-fluoro-N-(4-fluoro-3-(5-(2,2,2-trifluoroethyl)-2H-pyrazolo[3,4-b]pyridin-2-yl)phenyl)azetidine-1-carboxamide] | 3.7 | 5.3 | 1.7 | < 23 | –
CC(C)c1cnc2nn(-c3cc(NC(=O)c4ccc(F)cn4)ccc3F)cc2c1 [Compound 67, 5-fluoro-N-{4-fluoro-3-[5-(propan-2-yl)-2H-pyrazolo[3,4-b]pyridin-2-yl]phenyl}pyridine-2-carboxamide] | 210 | 310 | 42 | > 50000 | –
CC(C)(C)OC(=O)N1CCCC1c1cnc2nn(-c3cc(NC(=O)N4CCC4)ccc3F)cc2c1 (centres unmarked) [Compound 247, tert-butyl 2-(2-{5-[(azetidine-1-carbonyl)amino]-2-fluorophenyl}-2H-pyrazolo[3,4-b]pyridin-5-yl)pyrrolidine-1-carboxylate] | 40 | 23 | 14 | 5 | –
O=C(Nc1ccc(F)c(-n2cc3cc(-c4ncccc4Cl)cnc3n2)c1)N1CCC1 [Compound 315, N-{3-[5-(3-chloropyridin-2-yl)-2H-pyrazolo[3,4-b]pyridin-2-yl]-4-fluorophenyl}azetidine-1-carboxamide] | 2 | 2 | 1 | 5 | –
CC(C)c1cnc2nn(-c3cc(NC(=O)CCCC(F)(F)F)ccc3F)cc2c1 [Compound 214, 5,5,5-trifluoro-N-{4-fluoro-3-[5-(propan-2-yl)-2H-pyrazolo[3,4-b]pyridin-2-yl]phenyl}pentanamide] | 4600 | 658 | 1420 | 1060 | –
Cc1nc(C)c(C(=O)Nc2ccc(F)c(-n3cc4cc(N5CCCC5)cnc4n3)c2)o1 [Compound 157, N-{4-fluoro-3-[5-(pyrrolidin-1-yl)-2H-pyrazolo[3,4-b]pyridin-2-yl]phenyl}-2,4-dimethyl-1,3-oxazole-5-carboxamide] | 25 | 18 | 13 | < 23 | –
O=C(Nc1ccc(F)c(-n2cc3cc(N4CCC45COC5)cnc3n2)c1)N1CC(F)C1 [Compound 231, 3-fluoro-N-{4-fluoro-3-(5-{6-oxa-1-azaspiro[3.3]heptan-1-yl}-2H-pyrazolo[3,4-b]pyridin-2-yl)phenyl}azetidine-1-carboxamide] | 34 | 113 | 126 | – | 6
O=C(Nc1ccc(F)c(-n2cc3cc(N4C[C@@H]5C[C@H]4CO5)cnc3n2)c1)N1CC(F)C1 [Compound 172, 3-fluoro-N-(4-fluoro-3-{5-[(1S,4S)-2-oxa-5-azabicyclo[2.2.1]heptan-5-yl]-2H-pyrazolo[3,4-b]pyridin-2-yl]phenyl)azetidine-1-carboxamide] | 6.7 | 11 | 33 | < 23 | –
Cc1nc(C)c(C(=O)Nc2ccc(F)c(-n3cc4cc(-c5ncccc5CO)cnc4n3)c2)o1 [Compound 335] | 13 | 111 | 470 | 36 | –
